# In patent US20060122181A1, “Heteroaromatic pentacyclic compound and medicinal use thereof” (Japan Tobacco Inc., priority 2003, published 2006):
# Counter-ions that a name gives are not always drawn.
# How the values were obtained:
# [1] = molecular target: T1, Recombinant human protein tyrosine phosphatase 1B (Homo sapiens, UniProt P18031); assay: Protein tyrosine phosphatase 1B inhibitory activity (malachite green, phosphorylated insulin receptor peptide substrate); format: biochemical; settings: recombinant human PTP1B, 60 min room temperature, absorbance 650 nm
# T1 construct: purchased UBI
# T1 sequence (P18031 1-435): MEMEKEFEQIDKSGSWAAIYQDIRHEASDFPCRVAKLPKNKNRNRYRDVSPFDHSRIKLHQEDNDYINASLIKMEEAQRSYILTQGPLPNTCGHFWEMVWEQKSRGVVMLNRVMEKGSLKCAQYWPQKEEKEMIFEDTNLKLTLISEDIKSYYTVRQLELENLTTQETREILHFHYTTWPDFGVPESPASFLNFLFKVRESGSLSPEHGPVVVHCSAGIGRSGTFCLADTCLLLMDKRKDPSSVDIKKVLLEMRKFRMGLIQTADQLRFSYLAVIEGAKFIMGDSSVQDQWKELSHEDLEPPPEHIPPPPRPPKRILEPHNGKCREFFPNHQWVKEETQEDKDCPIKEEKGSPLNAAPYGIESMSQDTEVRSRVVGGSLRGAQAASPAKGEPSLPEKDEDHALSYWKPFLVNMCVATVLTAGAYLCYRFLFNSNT
# Experimental: Preparation of Assay Buffer:
# A 50 mM Tris-HCl buffer (pH 7.5), 50 mM NaCl and 3 mM dithiothreitol (DTT) were prepared.
# […] 0.1, 0.3, 1, 3 and 10 μM of the test compound were prepared and diluted with the above-mentioned assay buffer to the final dimethyl sulfoxide (DMSO) concentration of not more than 1%. As the control, the assay buffer was used.
# Preparation of Substrate:
# Recombinant human protein tyrosine phosphatase 1B (manufactured by UBI) was diluted with the above-mentioned assay buffer (1.2 ng/25 μl).
# The sample (10 μl) prepared as mentioned above and a substrate (25 μl) were successively added to a 96 well plate, and the enzyme (25 μl) prepared as mentioned above was added and mixed. The mixture was incubated at room temperature for 60 min and a malachite green (120 μl, Biomol), which is a color reagent, was added. The mixture was further incubated at room temperature for 20 min to allow for color development. An absorbance at 650 nm was measured on a plate reader based on which the protein tyrosine phosphatase 1B inhibitory activity of the test compound was evaluated.
# male ob/ob mice = assay: Hypoglycemic activity in ob/ob mice; format: in vivo; settings: fasting, relative to control group
# Experimental: A 0.5% methyl cellulose suspension of the test compound was orally administered to 6- to 9-week-old male ob/ob mice grouped according to the glucose level. Only a 0.5% methyl cellulose solution was administered to a control group.
# Blood was drawn under fasting condition, which condition was started simultaneously with the administration by means of removing the feed. The blood was drawn under anesthesia from the orbital vein 3 hours after the administration. The blood thus taken was centrifuged and the glucose level was measured from the obtained plasma by the hexokinase method (glucose measurement kit). For evaluation, the percentage (%) of decrease in the glucose level of the test compound-administered group relative to the control group is shown.
# female ob/ob mice [2] = assay: Effect of concomitant use with metformin hydrochloride on hypoglycemic activity; format: in vivo; settings: metformin chloride 30 mg/kg oral alone, ob/ob mice, relative to control
# Experimental: (§1) To 10-week-old female ob/ob mice grouped according to glucose level were orally administered a 0.5% methyl cellulose suspension of the test compound {note: Example 4-2 (1 mg/kg)} (test compound-administered group), a 0.5% methyl cellulose suspension of metformin chloride (30 mg/kg) (metformin-administered group), simultaneously both a 0.5% methyl cellulose suspension of the test compound and a 0.5% methyl cellulose suspension (metformin chloride 30 mg/kg) (test compound and metformin concomitant use group), or a 0.5% methyl cellulose solution alone (control group). The ob/ob mice were fasted for 3 hours before administration.
# (§2) Blood was drawn under fasting condition, which condition was started simultaneously with the administration by means of removing the feed. The blood was drawn under anesthesia from the orbital vein 3 and 5 hours after the administration. The blood thus taken was centrifuged and the glucose level was measured from the obtained plasma by the hexokinase method (glucose kit). For evaluation, the percentage (%) of decrease in the glucose level of each group other than the control group relative to the control group is shown.
# female ob/ob mice [3] = assay: Effect of concomitant use with glibenclamide on hypoglycemic activity; format: in vivo; settings: glibenclamide 3 mg/kg oral alone, relative to control
# Experimental: as §1, with “glibenclamide (3” for “metformin chloride (30”, “(glibenclamide-administered” for “(metformin-administered”, “(glibenclamide 3” for “(metformin chloride 30”, “glibenclamide” for “metformin”, “group).” for “group). The ob/ob mice were fasted for 3 hours before administration.”
# as §2, with “The blood was drawn under anesthesia from the orbital vein 3 and 5 hours after the administration.” left out
SMILES,IC50 [1],blood glucose decreasing rate (%) 3 hours later (male ob/ob mice; dose 1 mg/kg oral),melting point,blood glucose decreasing rate (%) 3 hours later (male ob/ob mice; dose 3 mg/kg oral),blood glucose decreasing rate (%) 3 hours later (female ob/ob mice [2]),blood glucose decreasing rate (%) 5 hours later (female ob/ob mice [2]),blood glucose decreasing rate (%) 3 hours later (female ob/ob mice [3]),blood glucose decreasing rate (%) 15 hours later (female ob/ob mice [3])
CCCC(CCC)c1ccc(N(C)Cc2ccc(-c3csc(CN(CC(=O)O)Cc4ccccc4)n3)cc2)cc1 [Example 1-25],0.13 µM,25%,138 °C,,,,,
CN(Cc1ccc(C2CCC(C)(C)CC2)cc1)c1ccc(-c2csc(CN(C)S(=O)(=O)c3ccc(C(=O)O)cc3)n2)cc1 [Example 3-98],0.16 µM,,218 to 221 °C,31%,,,,
CCC(CC)c1ccc(COc2ccc(-c3csc(CN(CC(=O)O)Cc4ccc(C(C)C)cc4)n3)cc2)cc1 [Example 3-15],0.27 µM,25%,138 to 140 °C,,,,,
CCCC(CCC)c1ccc(CN(C)c2ccc(-c3csc(CN(CC(=O)O)Cc4ccccn4)n3)cc2)cc1 [Example 3-53],0.28 µM,20%,117 to 120 °C,,,,,
CN(Cc1ccc(C2CCCCC2)cc1)c1ccc(-c2csc(CN3CCC(C(=O)O)(c4ccccc4)CC3)n2)cc1 [Example 3-67],0.23 µM,,220 to 222 °C,20%,,,,
CCCC(CCC)c1ccc(OCc2ccc(-c3csc(CN4Cc5ccccc5CC4C(=O)O)n3)cc2)cc1 (centres unmarked) [Example 1-45],0.066 µM,32%,117 to 126 °C,,,,,
CN(Cc1ccc(C(=O)O)cc1)c1nc(-c2ccc(COc3ccc(C4CCCCC4)cc3)cc2)cs1 [Example 1-37],0.14 µM,,209 to 211 °C,26%,,,,
CCCC(CCC)c1ccc(COc2ccc(-c3csc(CN(CC(=O)O)Cc4ccccc4)n3)cc2)cc1 [Example 3-10],0.2 µM,18%,145 to 148 °C,,,,,
CCCC(CCC)c1ccc(OCc2ccc(-c3csc(CN(CC(=O)O)Cc4ccccc4)n3)cc2)cc1 [Example 1-44],0.22 µM,20%,138 to 142 °C,,,,,
CN(Cc1ccc(C2CCCCC2)cc1)c1ccc(-c2csc(CNC(Cc3ccccc3)C(=O)O)n2)cc1 (centres unmarked) [Example 3-76],0.48 µM,33%,185 to 190 °C,,,,,
CN(Cc1ccc([C@H]2CC[C@H](C)CC2)cc1)c1ccc(-c2csc(CN(CC(=O)O)Cc3ccccn3)n2)cc1 [Example 3-52],0.54 µM,28%,,,,,,
"CN(C)C(=N)N=C(N)N [Metformin, metformin hydrochloride, reference compound]",,,,,17%,39%,,
CCCC(CCC)c1ccc(COc2ccc(C)cc2-c2csc(CN(CC(=O)O)Cc3ccccc3)n2)cc1 [Example 3-9],0.17 µM,18%,126 to 128 °C,,,,,
CC(C)CCN(CC(=O)O)Cc1nc(-c2ccc(N(C)Cc3ccc([C@H]4CC[C@H](C)CC4)cc3)cc2)cs1 [Example 3-92],0.18 µM,26%,166 to 167 °C,,,,,
CCCC(CCC)c1ccc(CN(C)c2ccc(-c3csc(CN(C)[C@@H](Cc4ccccc4)C(=O)O)n3)cc2)cc1 [Example 3-86],0.2 µM,16%,143 °C,,,,,
"COc1ccc(Cl)cc1C(=O)NCCc1ccc(S(=O)(=O)NC(=O)NC2CCCCC2)cc1 [Glibenclamide, glibenclamide, reference compound]",,,,,,,44%,40%
CN(Cc1ccc([C@H]2CC[C@H](C)CC2)cc1)c1ccc(-c2csc(CN(CC(=O)O)Cc3ccccc3)n2)cc1 [Example 3-32],0.18 µM,14%,157 to 159 °C,,,,,
CC(C)Cc1ccc(CN(C)c2ccc(-c3csc(CN(CC(=O)O)C(=O)Cc4ccc(C(C)C)cc4)n3)cc2)cc1 [Example 3-58],0.39 µM,23%,124 to 126 °C,,,,,
CCCC(CCC)c1ccc(COc2ccc(C)cc2-c2csc(CN(CC(=O)O)Cc3ccccn3)n2)cc1 [Example 3-21],0.45 µM,27%,118 to 120 °C,,,,,
CCCC(CCC)c1ccc(N(C)Cc2ccc(-c3csc(N(C)Cc4ccc(C(=O)O)cc4)n3)cc2)cc1 [Example 1-19],0.1 µM,35%,110 to 113 °C,,,,,
CCCC(CCC)c1ccc(CN(C)c2ccc(-c3csc([C@@H]4Cc5ccccc5CN4CC(=O)[O-])n3)cc2)cc1.[Na+] [Example 3-64],0.21 µM,13%,186 to 187 °C,,,,,
CCCC(CCC)c1ccc(COc2ccc(C)cc2-c2csc(CN3Cc4ccccc4CC3C(=O)O)n2)cc1 (centres unmarked) [Example 3-25],0.14 µM,20%,149 to 152 °C,,,,,
CCC(CC)c1ccc(N(Cc2ccc(-c3csc(CN(CC(=O)O)CC(=O)Nc4ccc(C(C)C)cc4)n3)cc2)C(C)C)cc1 [Example 1-78],0.18 µM,,,24%,,,,
CN(Cc1ccc(C2CCCCC2)cc1)c1ccc(-c2csc(CN(CC(=O)O)Cc3ccccc3)n2)cc1 [Example 3-29],0.41 µM,,148 to 150 °C,41%,,,,
CCCC(CCC)c1ccc(OCc2ccc(-c3csc(N(C)Cc4ccc(C(=O)O)cc4)n3)cc2)cc1 [Example 1-39],0.19 µM,32%,156 to 158 °C,,,,,
CCCC(CCC)c1ccc(OCc2ccc(-c3csc(COc4cncc(C(=O)O)c4)n3)cc2)cc1 [Example 1-48],0.23 µM,46%,165 to 171 °C,,,,,
CN(Cc1ccc(C2CCCCC2)cc1)c1ccc(-c2csc(CN(C)S(=O)(=O)c3ccc(C(=O)O)cc3)n2)cc1 [Example 3-100],0.15 µM,,193 to 196 °C,20%,,,,
CCCC(CCC)c1ccc(CN(C)c2ccc(-c3csc(CN4Cc5ccccc5CC4C(=O)O)n3)cc2)cc1 (centres unmarked) [Example 3-73],0.2 µM,14%,176 to 179 °C,,,,,
